Read-outs that look alike come from different tables or passages of the source.
Experiments:
5HT2A receptor [1] = target: T1, 5HT2A receptor (Homo sapiens, UniProt P28223); assay: biochemical; assay type: binding; design: expressed in transfected cells; crude membranes
5HT2A receptor [2] = target: T1, 5HT2A receptor; assay: cell-based; design: expressed in transfected cells; host or cells: HEK293T cells, transient co-transfection; details: BRET2 Gαq dissociation; for Emax: HEK-293T, normalized to 5-HT
5HT2A receptor [3] = target: T1, 5HT2A receptor; assay: cell-based; design: expressed in transfected cells; host or cells: HEK293T cells, transient co-transfection; details: BRET1 beta-arrestin2 recruitment; for Emax: HEK-293T, normalized to 5-HT, read-out: 5HT2A β-Arr Emax (%)
[4] = 5HT2A Ki (nM), secondary radioligand binding, Ki from IC50 by Cheng-Prusoff
[5] = 5HT2A Gq EC50 (nM), HEK293T cells
[6] = HEK293T cells, read-out: 5HT2A Gq Emax (%)
[7] = 5HT2A β-Arr EC50 (nM), HEK293T cells
[8] = secondary radioligand binding, Ki from IC50 by Cheng-Prusoff, read-out: 5HT2A Ki
[9] = HEK293T cells, read-out: 5HT2A Gq EC50
[10] = 5HT2A Ki (nM), secondary binding assay, Cheng-Prusoff
[11] = HEK293T, read-out: 5HTA Gq EC50
[12] = HEK293T, read-out: 5HTA Gq Emax (%)
[13] = HEK293T cells, read-out: 5HT2A β-Arr EC50
[14] = secondary binding assay, Cheng-Prusoff, read-out: 5HT2A Ki

T1 sequence (P28223 whole entry): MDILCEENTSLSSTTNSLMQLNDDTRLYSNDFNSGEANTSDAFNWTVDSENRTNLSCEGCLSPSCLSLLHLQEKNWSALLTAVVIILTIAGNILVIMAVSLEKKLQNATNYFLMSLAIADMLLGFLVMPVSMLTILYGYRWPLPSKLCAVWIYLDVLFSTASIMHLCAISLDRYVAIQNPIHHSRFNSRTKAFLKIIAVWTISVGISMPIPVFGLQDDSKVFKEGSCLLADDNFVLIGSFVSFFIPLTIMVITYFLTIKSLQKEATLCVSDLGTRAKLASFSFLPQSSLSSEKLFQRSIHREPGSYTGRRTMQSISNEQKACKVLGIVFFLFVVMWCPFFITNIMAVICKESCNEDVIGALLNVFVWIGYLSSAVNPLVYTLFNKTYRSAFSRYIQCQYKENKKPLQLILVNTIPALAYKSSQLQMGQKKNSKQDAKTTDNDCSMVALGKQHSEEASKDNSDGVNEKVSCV

Row | SMILES | Emax (5HT2A receptor [2]; [6]) [%] | Emax (5HT2A receptor [3]; HEK293T cells) [%] | Ki (5HT2A receptor [1]; [8]) [nM] | EC50 (5HT2A receptor [2]; [9]) [nM] | Ki (5HT2A receptor [1]; [10]) [nM] | Emax (5HT2A receptor [2]; [12]) [%] | EC50 (5HT2A receptor [3]; 5HT2A β-Arr EC50 (nM), HEK293T) [nM] | Emax (5HT2A receptor [3]; HEK293T) [%] | further results
1 | Fc1cccc2c(C3=CCCN(Cc4ccccc4)C3)c[nH]c12 [Example 73, 3-(1-benzyl-1,2,5,6-tetrahydropyridin-3-yl)-7-fluoro-1H-indole] | 81.9 | 56.5 | – | – | – | – | – | – | Ki (5HT2A receptor [1]; [4]): 151 nM; EC50 (5HT2A receptor [2]; [5]): 116 nM; EC50 (5HT2A receptor [3]; [7]): 331 nM
2 | CCc1cccc2c(C3=CCCN(C)C3)c[nH]c12 [Example 52, 7-ethyl-3-(1-methyl-1,2,5,6-tetrahydropyridin-3-yl)-1H-indole] | 89.3 | 73.4 | 42 | 25 | – | – | – | – | EC50 (5HT2A receptor [3]; [7]): 880 nM
3 | CCc1cccc2c(C3=CCCN(Cc4ccccc4)C3)c[nH]c12 [Example 69, 3-(1-benzyl-1,2,5,6-tetrahydropyridin-3-yl)-7-ethyl-1H-indole] | 49.7 | 63.5 | – | – | – | – | – | – | Ki (5HT2A receptor [1]; [4]): 199 nM; EC50 (5HT2A receptor [2]; [5]): 98.2 nM; EC50 (5HT2A receptor [3]; [7]): 1740 nM
4 | CN1CC=C(c2n[nH]c3c(Cl)cccc23)C1 [Example 207, 7-chloro-3-(1-methyl-2,5-dihydro-1H-pyrrol-3-yl)-1H-indazole] | – | – | – | – | 203 | 94.7 | 129 | 47.8 | EC50 (5HT2A receptor [2]; [11]): 50.9 nM
5 | N#Cc1ccc2c(C3=CCCNC3)n[nH]c2c1 [Example 79, 3-(1,2,5,6-tetrahydropyridin-3-yl)-1H-indazole-6-carbonitrile] | 48.6 | 82.1 | – | – | – | – | – | – | Ki (5HT2A receptor [1]; [4]): 441 nM; EC50 (5HT2A receptor [2]; [5]): 874 nM; EC50 (5HT2A receptor [3]; [7]): 1710 nM
6 | CN1CCC=C(c2c[nH]c3c(C(F)(F)F)cccc23)C1 [Example 59, 3-(1-methyl-1,2,5,6-tetrahydropyridin-3-yl)-7-(trifluoromethyl)-1H-indole] | 81.7 | 56.9 | 25.8 | 17.8 | – | – | – | – | EC50 (5HT2A receptor [3]; [13]): 75.5 nM
7 | Clc1cc(Br)cc2c(C3CNC3)c[nH]c12 [Example 267, 3-(azetidin-3-yl)-5-bromo-7-chloro-1H-indole] | – | – | – | – | 175 | 64 | 1050 | 20.8 | EC50 (5HT2A receptor [2]; 5HTA Gq EC50 (nM), HEK293T): 949 nM
8 | Fc1ccc2c(C34CNCC3C4)c[nH]c2c1 (stereo not drawn) [Example 281, 3-(3-azabicyclo[3.1.0]hexan-1-yl)-6-fluoro-1H-indole] | – | – | – | – | – | 66.3 | 369 | 27.9 | Ki (5HT2A receptor [1]; [14]): 61.9 nM; EC50 (5HT2A receptor [2]; [11]): 52.1 nM
9 | CC(C)c1ccc2[nH]cc(C3=CCCNC3)c2c1 [Example 23, 5-isopropyl-3-(1,2,5,6-tetrahydropyridin-3-yl)-1H-indole] | 58.8 | 31.4 | 98.6 | 65.7 | – | – | – | – | EC50 (5HT2A receptor [3]; [13]): 735 nM
10 | CN1CCC=C(c2c[nH]c3c(Cl)cccc23)C1 [Example 44, 7-chloro-3-(1-methyl-1,2,5,6-tetrahydropyridin-3-yl)-1H-indole] | 86.6 | 37.6 | 76.3 | 18.9 | – | – | – | – | EC50 (5HT2A receptor [3]; [13]): 78.8 nM
11 | Fc1cc(Cl)c2[nH]nc(N3CCNCC3)c2c1 [Example 232, 7-chloro-5-fluoro-3-(piperazin-1-yl)-1H-indazole] | – | – | – | – | 1540 | 48.4 | 1970 | 29 | EC50 (5HT2A receptor [2]; 5HTA Gq EC50 (nM), HEK293T): 170 nM
12 | CCCN1CCC=C(c2c[nH]c3c(C#N)cccc23)C1 [Example 157, 3-(1-propyl-1,2,5,6-tetrahydropyridin-3-yl)-1H-indole-7-carbonitrile] | – | – | – | – | 164 | 78 | 500 | 39.3 | EC50 (5HT2A receptor [2]; [11]): 93 nM
13 | Fc1ccc2[nH]nc(C3=CCCNC3)c2c1 [Example 85, 5-fluoro-3-(1,2,5,6-tetrahydropyridin-3-yl)-1H-indazole] | 88.3 | 96 | 33.4 | 2.8 | – | – | – | – | EC50 (5HT2A receptor [3]; [13]): 68.6 nM
14 | CCCN1CCC=C(c2c[nH]c3c(C)cccc23)C1 [Example 155, 7-methyl-3-(1-propyl-1,2,5,6-tetrahydropyridin-3-yl)-1H-indole] | – | – | – | – | 539 | 68.5 | 532 | 34.4 | EC50 (5HT2A receptor [2]; [11]): 29.5 nM
15 | COc1cccc2[nH]cc(C3=CCCN(C)C3)c12 [Example 20, 4-methoxy-3-(1-methyl-1,2,5,6-tetrahydropyridin-3-yl)-1H-indole] | 91 | 47.7 | 60 | 3 | – | – | – | – | EC50 (5HT2A receptor [3]; [13]): 61.8 nM
16 | Cc1ccnc2c(C3=CCCN(C)C3)c[nH]c12 [Example 137, 7-methyl-3-(1-methyl-1,2,5,6-tetrahydropyridin-3-yl)-1H-pyrrolo[3,2-b]pyridine] | – | – | – | – | 531 | 74.4 | 372 | 44.6 | EC50 (5HT2A receptor [2]; 5HTA Gq EC50 (nM), HEK293T): 57.6 nM
17 | CC(C)N1CC=C(c2n[nH]c3c(Cl)cccc23)C1 [Example 219, 7-chloro-3-(1-isopropyl-2,5-dihydro-1H-pyrrol-3-yl)-1H-indazole] | – | – | – | – | 313 | 55.5 | 537 | 71.9 | EC50 (5HT2A receptor [2]; [11]): 25.5 nM
18 | Fc1ccc(Cl)c2[nH]nc(C3=CCCNC3)c12 [Example 131, 7-chloro-4-fluoro-3-(1,2,5,6-tetrahydropyridin-3-yl)-1H-indazole] | – | – | – | – | – | 106 | – | 72.7 | Ki (5HT2A receptor [1]; [14]): 47.5 nM; EC50 (5HT2A receptor [2]; [11]): 7.2 nM; EC50 (5HT2A receptor [3]; HEK293T, read-out: 5HT2A β-Arr EC50): 17.4 nM
19 | COc1ccnc2[nH]cc(C3=CCCN(C)C3)c12 [Example 14, 4-methoxy-3-(1-methyl-1,2,5,6-tetrahydropyridin-3-yl)-1H-pyrrolo[2,3-b]pyridine] | 67.1 | 32.2 | 43 | 72.7 | – | – | – | – | EC50 (5HT2A receptor [3]; [13]): 74.1 nM
20 | CCCN1CCC=C(c2c[nH]c3c(C)cc(F)cc23)C1 [Example 161, 5-fluoro-7-methyl-3-(1-propyl-1,2,5,6-tetrahydropyridin-3-yl)-1H-indole] | – | – | – | – | 488 | 93.2 | 311 | 35.2 | EC50 (5HT2A receptor [2]; [11]): 84.1 nM
21 | C#CCN1CCC=C(c2n[nH]c3c(Cl)cccc23)C1 [Example 125, 7-chloro-3-(1-(prop-2-yn-1-yl)-1,2,5,6-tetrahydropyridin-3-yl)-1H-indazole] | 93.5 | 63.3 | – | 75 | – | – | – | – | Ki (5HT2A receptor [1]; [4]): 1970 nM; EC50 (5HT2A receptor [3]; [7]): 291 nM
22 | CCc1cccc2c(C3=CCCNC3)c[nH]c12 [Example 50, 7-ethyl-3-(1,2,5,6-tetrahydropyridin-3-yl)-1H-indole] | 92.6 | 79.1 | – | 4.7 | – | – | – | – | Ki (5HT2A receptor [1]; [4]): 244 nM; EC50 (5HT2A receptor [3]; [13]): 67 nM
23 | CN1CCC=C(c2n[nH]c3ccccc23)C1 [Example 46, 3-(1-methyl-1,2,5,6-tetrahydropyridin-3-yl)-1H-indazole] | 62.6 | 21.9 | 87.3 | 3.3 | – | – | – | – | EC50 (5HT2A receptor [3]; [7]): 115 nM
24 | CCN1CCC=C(c2nn(CC)c3c(Cl)cccc23)C1 [Example 146, 7-chloro-1-ethyl-3-(1-ethyl-1,2,5,6-tetrahydropyridin-3-yl)-1H-indazole] | – | – | – | – | 171 | 54.5 | 1530 | 56.7 | EC50 (5HT2A receptor [2]; 5HTA Gq EC50 (nM), HEK293T): 51.7 nM

Reference: patent US20260265246A1 (ICAHN SCHOOL OF MEDICINE AT MOUNT SINAI, priority 2021, published 2026)
